Reference: patent US20250235446A1, “COMPOSITION FOR INHIBITING METASTASIS AND ENHANCING ANTICANCER DRUG SENSITIVITY” (Korea Advanced Institute of Science and Technology, priority 2020, published 2025)

Experiments:
A549 cells [1] = assay: qRT-PCR of genes related to mesenchymal cells, epithelial cells and stemness; type: cell-based
Experimental: In addition, qRT-PCR was performed to perform transcript analysis for all genes (n=3, mean±SD). The qRT-PCR analysis was performed using a PCR system (Veriti 96well Thermal Cycler, Applied Biosystems, Waltham, MA, USA), and the qRT-PCR analysis was performed using the QuantStudio 5 real-time PCR system (Applied Biosystems, Foster City, CA), samples containing 20 μL of cDNA, primers, and SYBR Master Mix (Genet Bio, Daejeon, Korea).
(§1) TGF-β-treated cancer cells and -untreated cancer cells were treated with Nutlin-3a (5 μM, Sigma, St. Louis, Mo) to activate p53. It was confirmed whether the epithelial cell phenotype was restored according to p53 activation, and the results were shown in FIG. 2. At this time, after inducing EMT of A549 cells under the same conditions as in Example 1-1, Nutlin-3a (1 μM, Sigma, St. Louis, Mo) was treated, and Western blot and qRT-PCR were performed in the same method as in Example 1-1.
In addition, in order to measure cell viability, the A549 cells from which the SMAD4 gene was deleted as described above were seeded in a 96-well plate and after 24 hours, EMT was induced and Nutlin-3a (1 μM) was treated, and then an anticancer drug 5-FU (1 μM) or DOX (0.5 μM) was treated for 5 days. In FIG. 4A, after 5 days, the cells were imaged using IncuCyte ZOOM (Sartorius, Gottingen, Germany), and the cell viability was measured by confluence of adherent living cells using IncuCyte software. In addition, the results were confirmed by qRT-PCR in the same manner as in Example 1-1 and illustrated in FIG. 4B (n=3, mean±SD).
Alternatively, in the same manner as in Example 2, the A549 cells from which the SMAD4 gene was deleted were treated with shRNAs set forth in SEQ ID NO: 2 (shERK1) and SEQ ID NO: 3 (shERK2), thereby deleting the ERK gene. Then, the results were confirmed by western blot analysis or qRT-PCR (n=3, mean±SD).

A549 cells [2] = assay: Western blot of phenotype-related proteins (E-CAD, ZEB1) in EMT-induced lung cancer cells; type: cell-based
Experimental: The activity of TGF-β in a tumor microenvironment performs various functions, such as promoting cancer growth and EMT. Cancer cells were treated with TGF-β, an external stimulus, to induce EMT, and the results were illustrated in FIG. 1. To this end, A549 cells (KCBL No. 10185) as a lung cancer cell line were purchased from the Korean Cell Line Bank (KCLB). EMT was induced by treating the A549 cells with TGF-β (5 ng/mL, Peprotech, Cranbury, NJ, USA) for 48 hours. Changes in protein expression of cancer cells were confirmed through western blot analysis in the following process. First, cells were lysed in a lysis buffer [including 20 mM HEPES, pH 7.2, 150 mM NaCl, 0.5% Triton X-100, 10% glycerol, protease/phosphatase inhibitor mixture (protease/phosphatase inhibitor cocktail (Thermofisher, Waltham, MA))]. The lysate was centrifuged at 13,000 rpm at 4° C. for 20 minutes, and the supernatant was obtained and separated by SDS-PAGE, and then subjected to western blot analysis. To observe the amounts of proteins, E-cadherin (sc-21791), p53 (sc-126), SMAD4 (sc-7966), ZEB1 (sc-515797), mouse IgG (sc-2025) and rabbit IgG (#sc-2027) antibodies (purchased from Santa Cruz Biotechnology (Santa Cruz, CA, USA)) were used. In addition, ERK1/2 (#9102), phospho-ERK1/2 (#9106), phospho-MEK1/2 (#9121) and MYC (#13987) antibodies (Cell Signaling Technology (Beverly, MA, USA)) were used and the amounts of the proteins were observed. In addition, the rabbit polyclonal anti-GAPDH antibody was provided and used from the Korea Research Institute of Bioscience and Biotechnology.
as §1, with “1-1. […]” for “1-1.”

[3] = A549 cells, TGF-β 5 ng/mL for 48 hours

Compound	activity of SNAI1 gene (mesenchymal) (A549 cells [1]; TGF-β-treated A549 cells)	activity of TWIST1 gene (mesenchymal) (A549 cells [1]; TGF-β-treated A549 cells)	activity of ZEB1 gene (mesenchymal) (A549 cells [1]; TGF-β-treated A549 cells)	activity of genes CDH1 and EpCAM related to epithelial cells (A549 cells [1]; TGF-β-treated A549 cells)	epithelial cell phenotype (E-CAD+/ZEB1−), protein expression (A549 cells [2]; TGF-β-treated A549 cells (TGF-β maintained))	epithelial cell phenotype (E-CAD+/ZEB1−), protein expression (A549 cells [2]; TGF-β-untreated A549 cells)	expression of GRHL2 and OVOL1 genes related to epithelial cells (A549 cells [1]; [3])	expression of genes CDH1 and EpCAM related to epithelial cells (A549 cells [1]; [3])	expression of genes SMAD4, ZEB1, VIM, SNAI1, SNAI2 related to mesenchymal cells (A549 cells [1]; [3])	expression of the E-cadherin protein (A549 cells [2]; [3])
COc1ccc(C2=N[C@@H](c3ccc(Cl)cc3)[C@@H](c3ccc(Cl)cc3)N2C(=O)N2CCNC(=O)C2)c(OC(C)C)c1 [Nutlin-3a]	suppressed	almost no change	significantly inhibited	rather decreased or still showed the low activity	converged to inactivation of E-CAD and inactivation of ZEB1	restored				
transforming growth factor beta [TGF-β]							did not show significant changes	reduced	activated	reduced
